Data from the METLIN SMRT retention time set (Domingo-Almenara et al. 2019).

Test: gradient 5% acetonitrile 3 min, to 50% in 2 min, to 85% in 15 min, held 3 min, 100 µL/min
Conditions: column: Zorbax Extend-C18 2.1 x 50 mm; eluents: water / acetonitrile, 0.1% formic acid
How it was run: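 Mixtures of ~100 pure standards were chromatographed on a Zorbax Extend-C18 column (2.1 × 50 mm, 1.8 μm) at 100 μL/min using water and acetonitrile, each with 0.1% formic acid. Detection used a quadrupole time-of-flight mass spectrometer in positive and negative ionization mode, and data collection spanned 3 months. Retention time was obtained from adduct peaks picked computationally and each checked manually.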

RP-LC retention time [s]	Structure (SMILES)
984	O=S(=O)(NCC(O)c1ccc(C(F)(F)F)cc1)c1ccc2c(c1)CCCC2 (configuration not stated)
977	COc1cc(OC)cc(C(=O)N2CCc3cc(-c4csc(C)n4)ccc32)c1
1130	Cc1ccc(-c2nc(C)cc(OCC(=O)Nc3c(C)cc(C)cc3C)n2)cc1
955	COc1ccc(-c2nnc(-c3ccccc3)o2)cc1S(=O)(=O)NC(C)(C)C
908	COc1ccccc1N1CCN(c2cc(SCC(=O)NCc3ccccc3Cl)ncn2)CC1
871	CCn1c(=O)c(C(=O)NCc2ccccc2Br)nc2cccnc21
737	COCCn1cc(CCNC(=O)c2cc(F)cc(F)c2)c2cccnc21
769	COc1ccc(-c2ncc(C(=O)Nc3ccc(OC)c(OC)c3)c(-c3ccncc3)n2)cc1
848	CC1(C(=O)NCc2ccc(F)cc2)CN(S(C)(=O)=O)CC(=O)N1Cc1ccccc1Cl (configuration not stated)
692	COc1ccc(CNC(=O)Cc2nnc(-c3ccsc3)o2)c(OC)c1
1180	COc1ccc(NC(=O)c2cc3c(=O)n(CC(C)C)c4ccccc4n3n2)c(OC)c1
588	O=C(Cc1nc(-c2cccnc2)n[nH]1)NCCc1ccccc1
982	COc1ccc2c(CCNC(=O)c3ccc(C(C)(C)C)cc3)c[nH]c2c1

Further lines, the compound ahead of its results:

Structure (SMILES)	RP-LC retention time [s]
CCCN(CC1CCOC1)C(=O)c1ccc(F)cc1Cl (configuration not stated)	773
CN(C)CCNC(=O)C1CCc2sc(C(=O)N3CCCC3)cc2C1 (configuration not stated)	660
COc1ccc(S(=O)(=O)N2CCCC(C(N)=O)C2)cc1Cl (configuration not stated)	701
CCN(CC)CCCNC(=O)c1cn(C)nc1S(=O)(=O)N1CCN(c2ccc(Cl)cc2)CC1	729
Cn1cnnc1SCC(=O)Nc1ccc(F)cc1	603
CN(C)CCNC(=O)C1CCN(c2nc3ccc(-c4ccc(F)cc4)nc3s2)CC1	686
O=C(Nc1ccccc1)N1CCc2nc(-c3ccc(Cl)cc3)ncc2C1	997
Cc1cc(C)c2c(N3CCSCC3)nc(C(=O)N3CCN(c4ccccc4)CC3)nc2n1	722
O=C(c1ccccn1)N1CCCn2nc(-c3ccc(Cl)cc3)cc2C1	817
Cc1ccc(CNC(=O)N2CCCC2c2nc(-c3ccccc3)no2)cc1 (configuration not stated)	994
Cc1c(Cl)cccc1S(=O)(=O)NCC1CCN(C(=O)c2cc3ccccc3o2)CC1	934
COc1cc(OC)cc(N2C(=O)C3N=NN(Cc4nc(-c5cccc(Cl)c5)no4)C3C2=O)c1 (configuration not stated)	1020
O=C(Cn1nc2c3cc(-c4ccc(F)cc4)nn3ccn2c1=O)N1CCN(c2ccc(F)cc2)CC1	920
CN(C)c1nc2cc(C(=O)NC3CCCC3)sc2n1-c1ccc(F)cc1	1050
Cc1nc(C)c(C(=O)NCC23CCCC=C2NC(=O)CC3)s1 (configuration not stated)	633
COc1ccc(N2CCCn3c2nc2c3c(=O)n(CC(=O)O)c(=O)n2C)cc1	660
CCn1ccc(C(=O)N2CC(n3cc(COC)nn3)C2)n1	605
Cc1ccc(Cn2nc3c(S(=O)(=O)N4CCCCC4)cccn3c2=O)c(C)c1	967
FCCN(CCF)c1cccc(Cl)c1	1060
Cc1ccn(CC(=O)N2CC(n3cc(COc4ccc(F)cc4)nn3)C2)n1	716
O=C(Nc1ccc2cn[nH]c2c1)C1c2ccccc2Oc2ccccc21	795
CCCC(=O)Nc1ccc2c(c1)CC(C(=O)NCC(=O)OC)CO2 (configuration not stated)	650
O=C(CN1CCN(C(=O)Nc2ccc(Br)cc2)CC1=O)N1CCCCC1	701
CCOC(=O)c1c(C)[nH]c(C(=O)N2CCCC(C(=O)NCc3ccc(F)cc3)C2)c1C (configuration not stated)	803
